We go through one compound from US9539282B2, “Therapeutic use of hydrogen molecules” (MAX-PLANCK-GESELLSCHAFT ZUR FORDERUNG DER WISSENSCHAFTEN …, priority 2012, dated 2017).

The conditions of data set [1]: standard conditions (room temperature, standard air pressure); cited from earlier work.
The conditions of data set [2]: standard conditions, worked out from 0.8 mmol and 2 g per mole.

As to `[HH]` [hydrogen], the “maximum concentration at which hydrogen dissolves in water” value in data set [1] was “about 0.8 mmol”. Moreover, the “hydrogen per liter of water at maximum dissolution” value in data set [2] is recorded as “about 1.6 mg per liter”.
